{"source": "patent US20220064238A1", "about": "“Methods And Compositions For Modifying Transcription Factor Activity by Targeting The Human Mediator Complex Using Cell Penetrating Memetic Peptides And Methods of Treating Cancer Using The Same” (The Regents of the University of Colorado, a body corporate, priority 2020, published 2022)", "test_system": "Gal4-VP16 / Mediator", "assay": "In vitro transcription on chromatin templates activated by Gal4-VP16", "format": "biochemical, human", "details": "read-out: IC50, transcription in the presence of Gal4-VP16", "text": "Finally, we assessed whether the bivalent peptide would selectively block p53-dependent transcription compared with VP16, a viral activation domain. Whereas p53 and VP16 both interact with Mediator, they do so through different subunits (MED17 and MED25, respectively).\nIn vitro transcription: Chromatinized templates and in vitro transcription assays were generated and completed as described (Knuesel et al., 2009). Briefly, each activator (GAL4-p53AD or GAL4-VP16AD) was titrated to yield maximum transcription. While the activator bound the template, the general transcription factors (GTFs) were mixed in 0.1 M HEMG (10 mM HEPES pH 7.6, 100 mM KCl, 0.1 mM EDTA, 10% glycerol, 5.5 mM MgCl2) to give approximate final concentrations of 40 nM TFIIA, 10 nM IIB, 0.8 nM TFIID, 10 nM TFIIE, 10 nM TFIIF, 0.5 nM TFIIH and 2 nM pol II. A non-limiting amount of Mediator was then diluted in a separate salts mix (10 mM HEPES pH 7.6, 100 mM KCl, 2.5% PVA, 2.5% PEG, 7.5 mM MgCl2), along with 400 U of RNAseOUT, about 300 ng PC4 and about 300 ng HMGB1. On ice, the desired concentration of peptide was then added to the Mediator mix, followed by the GTF mix at a 5:11 ratio. The GTFs, Mediator and peptide were then incubated at least 5 minutes at 30° C. […]", "note": "Bridge positions count the residues as written; N and C are the ends. Square brackets hold non-standard residues; d marks the D form. Peptide text beside a SMILES is read from it. PEG6 = NCCOCCOCCOCCOCCOCCOCCC(=O)O; R8 = C=CCCCCCC[C@@](C)(N)C(=O)O; S5 = C=CCCC[C@](C)(N)C(=O)O"}
{"smiles": "CC[C@H](C)[C@H](NC(=O)[C@H](CC(=O)O)NC(=O)[C@H](CC(=O)O)NC(=O)[C@@H]1CCCN1C(=O)[C@H](CO)NC(=O)[C@H](CC(C)C)NC(=O)CCOCCOCCOCCOCCOCCOCCNC(=O)[C@H](CCCNC(=N)N)NC(=O)[C@H](CCCNC(=N)N)NC(=O)[C@]1(C)CCCC=CCCCCCC[C@@](C)(NC(=O)[C@H](Cc2ccccc2)NC(=O)[C@H](CCCNC(=N)N)NC(=O)[C@H](CCC(=O)O)NC(=O)[C@H](CCC(N)=O)NC(=O)[C@H](CO)NC(=O)[C@H](CCCNC(=N)N)NC(C)=O)C(=O)N[C@@H](CC(=O)O)C(=O)N[C@@H](CC(C)C)C(=O)N[C@@H](Cc2c[nH]c3ccccc23)C(=O)N[C@@H](CCCCN)C(=O)N[C@@H](CCCNC(=N)N)C(=O)N[C@@H](CC(C)C)C(=O)N1)C(=O)N[C@@H](CCC(=O)O)C(=O)N[C@@H](CCC(N)=O)C(=O)N[C@@H](Cc1c[nH]c2ccccc12)C(=O)N[C@@H](Cc1ccccc1)C(=O)N[C@H](C(=O)N[C@@H](CCC(=O)O)C(=O)N[C@@H](CC(=O)O)C(N)=O)[C@@H](C)O", "note": "[bivalent peptide] (Ac-RSQERF[R8]DLWKRL[S5]RR[PEG6]LSPDDIEQWFTED-NH2; staple 7-14; N-terminus assumed)", "values": [{"measurement": "IC50", "result": 424, "unit": "nM"}]}
